Measurements reported in PMC4764322, “An Unusual Member of the Papain Superfamily: Mapping the Catalytic Cleft of the Marasmius oreades agglutinin (MOA) with a Caspase Inhibitor” (PLoS ONE, 2016).
Residues, ends and D or L forms follow the SMILES beside them. *: point of attachment. Cbz = O=C(OCc1ccccc1)*; CH2F = FC*

What was measured:
[1] = target: T1, Marasmius oreades agglutinin (MOA) (Marasmius oreades, UniProt Q8X123); assay: X-ray crystal structure (co-crystal, […]-1.[…] Å); format: binding; conditions: calcium, imidazole pH 8.0
T1 construct: wild-type full-length 293 aa cDNA (MOApT7-LO), E. coli BL21(DE3), no tag mentioned; homodimer; model residues 2-293, Met1 probably cleaved

[2] = target: the molecule itself; assay: crystal structure; MOA 5 mg/ml mixed with Galα1,3(Fucα1,2)Gal trisaccharide (1:20) and Z-VAD-fmk (1:3, 1:20 or 1:30 MOA:inhibitor); 0.1 M imidazole pH 8.0, 10-16% PEG 8000, 0.2 M calcium acetate, with or without 5% DMSO; space group P6(3)22; three data sets (ZVAD-direct, ZVAD-inverted, ZVAD-dual)

C[C@@H]1O[C@@H](O[C@H]2C(O)O[C@H](CO)[C@H](O)[C@@H]2O[C@H]2O[C@H](CO)[C@H](O)[C@H](O)[C@H]2O)[C@@H](O)[C@H](O)[C@@H]1O (stereo partly drawn) [Galα1,3(Fucα1,2)Gal trisaccharide]
X-ray crystal structure (co-crystal, 1.6-1.7 Å) ([1]; three lectin-domain sugar sites (α, β, γ), 1:20 MOA:sugar): The three sugar binding sites of MOA show a different preference for the anomeric form

CC(C)[C@H](NC(=O)OCc1ccccc1)C(=O)N[C@@H](C)C(=O)N[C@@H](CC(=O)O)C(=O)CF [Z-VAD-fmk] (Cbz-Val-Ala-Asp-CH2F)
X-ray crystal structure (co-crystal, 1.6-1.7 Å) ([1]; covalent, thioether with catalytic Cys215, direct and inverted orientations): the inhibitor molecule binds to the active site of MOA forming a thioether

B1: Marasmius oreades agglutinin (MOA), wild type (enzyme)
chain: MSLRRGIYHIENAGVPSAIDLKDGSSSDGTPIVGWQFTPDTINWHQLWLAEPIPNVADTFTLCNLFSGTYMDLYNGSSEAGTAVNGWQGTAFTTNPHQLWTIKKSSDGTSYKIQNYGSKTFVDLVNGDSSDGAKIAGWTGTWDEGNPHQKWYFNRMSVSSAEAQAAIARNPHIHGTYRGYILDGEYLVLPNATFTQIWKDSGLPGSKWREQIYDCDDFAIAMKAAVGKWGADSWKANGFAIFCGVMLGVNKAGDAAHAYNFTLTKDHADIVFFEPQNGGYLNDIGYDSYMAFY
notes: Marasmius oreades agglutinin, wild-type cDNA in vector MOApT7-LO; 293 amino acids; Homodimer; one protomer in the asymmetric unit, the dimer arises by crystallographic symmetry; source: E. coli BL21 (DE3), purified (D-Gal-sepharose, cation exchange, size exclusion)
binding result [2]: binds
